Test results reported in patent publication US20260272878A1, “ADAR1 INHIBITORS AND USES THEREOF” (THE WISTAR INSTITUTE OF ANATOMY AND BIOLOGY, priority 2023, published 2026).
“Also recorded” adds a separate entry of the source. Where two headings read alike, the source gives them in different places.

Key:
[1] = molecular target: GAPDH (Homo sapiens, UniProt P04406); assay: SPR binding to negative control protein GAPDH
Source text: (§1) FIGS. 5A-5D show Biacore SPR analysis for binding of ADAR1i to ADAR1p110. (FIG. 5A) SPR analysis for binding kinetics of 8 compounds to ADAR1p110-WT. ADAR1 inhibition positive (ADAR1i-13, ADAR1i-120, ADAR1i-124) and negative compounds. (FIG. 5B, FIG. 5C) […] of SPR analysis for binding of ADAR1i-13 and ADAR1i-124 to ADAR1p110-WT and ADAR1p110-E912A as well as negative control proteins, GAPDH and HuR, are shown. […] ADAR1-E912, equivalent of ADAR2 E396, is located in the catalytic center.

[2] = molecular target: ADAR1p110-E912A (Homo sapiens, UniProt P55265, E912A); assay: Biacore SPR binding to ADAR1p110-E912A mutant
Source text: as §1
No complete 3-D structure of ADAR1 is currently available. […] The glutamate E912 and E396 in ADAR1 and ADAR2, respectively, plays an important proton transfer function during hydrolytic deamination reaction (42, 43).

[3] = tested on: YUMM1.7 cells; assay: qRT-PCR of ISG expression (IFN signaling), YUMM1.7; format: cell-based, mouse; conditions: YUMM1.7, 10 μM, 12 hrs
Procedure: (§2) FIGS. 9A-9C show dose-dependent killing of cancer cells and activation of IFN signaling. […] YUMM1.7 (FIG. 9B) and HGS2 cells (FIG. 9C) were treated with ADAR1i-124 at 10 μM (12 hrs). RNA samples were analyzed by qRT-PCR to monitor ISG expression levels. Data: mean±SD (n=3). Significant differences were identified by two-tailed Student's t-tests: ***P<0.001.
(§3) Dose-dependent selective killing of telomerase reactivated cancer cells was determined (FIG. 9A).

[4] = mouse, in vivo, ip
[5] = tested on: YUMM1.7; assay: Dose-dependent killing, YUMM1.7; format: cell-based; conditions: mouse non-ALT cancer cells
Procedure: as §2

[6] = tested on: ALT U2OS cells; assay: Cell killing / viability, U2OS; format: cell-based
Procedure: FIGS. 8A-8C show analysis of ADAR1i-124 effects in cancer cells. […] Viability was examined using the Apo Tox-Glo assay system. Control, 0.3% DMSO. Data: mean±SD (n=3). Significant differences identified by two-tailed Student's t-tests: *P<0.05, n.s., not significant. (FIG. 8B) Western blotting analysis of HeLa cells treated with ADAR1i-124 (10 μM).
as §2, §3

[7] = tested on: mouse melanoma; assay: Subcutaneous mouse melanoma growth in B6 black mice; format: in vivo; conditions: 4 treatments starting at Day 8, versus vehicle
Source text: We inoculated mouse melanoma cells subcutaneously in B6 black mice. Then, starting at Day 8, we treated mice for 4 treatments of either vehicle only or ADAR1i-124 (FIG. 11A).

[8] = tested on: human and mouse melanoma (telomerase reactivated) cell lines; assay: Suppression of melanoma cell lines, comparison of inhibitors (not shown); format: cell-based
Procedure: as §3

[9] = tested on: YUMM1.7 cells; assay: Cell death mechanism, pMLKL necroptosis marker, YUMM1.7; format: cell-based, mouse; conditions: YUMM1.7, pMLKL marker
Source text: (§4) FIGS. 10A-10C show ADAR1i-124 kills cancer cells via different cell death mechanism. (FIG. 10A) Differential expression of ADAR1p150 and ADAR1p110 in cancer cells. […] Annexin V and pMLKL were used as apoptosis and necroptosis markers, respectively. At least 200 cells were examined. Data: mean±SD (n=3). Significant differences were identified by two tailed Student's t-tests: *P<0.05, n.s., not significant. […] We plan to evaluate ADAR1 inhibitors in vivo in mouse tumor model systems by using these mouse cancer cell lines.
(§5) Thus, ADAR1i-124 has the potential to act as a “two birds with one stone” cancer therapeutic.

[10] = tested on: HGS2 cells; assay: qRT-PCR of ISG expression (IFN signaling), HGS2; format: cell-based, mouse; conditions: HGS2, 10 μM, 12 hrs
Procedure: as §2

[11] = tested on: HeLa cells; assay: Cell death mechanism, Annexin V apoptosis marker, HeLa; format: cell-based, human
Source text: as §4, §5

[12] = tested on: Z-RNA; assay: Z-RNA formation; format: cell-based
Source text: FIGS. 7A-7C show analysis of ADAR1i-13 and analogs. […] IC50 values determined by dose-dependent in vitro editing assay are shown for ADAR1 inhibition positive compounds. […] Dumbbell-shaped dsRNA has been reported to form Z-RNA conformation and act as a strong IFN signaling activation triggers. ADAR1p150 mediated A-to-I editing suppresses Z-RNA structure transition and activation of IFN signaling.

[13] = tested on: mouse melanoma and ovarian cancer cells; assay: Killing of mouse melanoma and ovarian cancer cells (FIG. 10C); format: cell-based
Source text: as §4

[14] = Half-life in culture media by loss of cancer cell killing activity; format: in vitro ADME; conditions: determined by loss of cancer cell killing activity (data not shown), read-out: t1/2 in the culture media (converted)
Source text: We will modify ADAR1i-124 and derive ADAR1i-124 analogs with higher potency (higher affinity binding and lower IC50) ready to be tested for animal model studies (next section).

[15] = tested on: WM3000 PDX melanoma cell line; assay: Dose-dependent killing, WM3000; format: cell-based; conditions: human PDX melanoma cell line
Procedure: as §2
Treatments and analysis. The efficacy of ADAR1i alone or combining with αPD1 Ab for suppression of tumor growth will be assessed as described in the previous section (Aim 2-1). We have at our disposal the largest collection (>500) of clinically and genetically annotated melanoma PDX. […] We will use the human melanoma cell lines/PDXs in subcutaneous tumor assays in the hu-BLT mice. Human melanomas will be established in the hu-BLT mice and randomized into 4 treatment groups (n=5 per group): 1) ADAR1i alone, 2) αPD-1 Ab alone, 3) combination ADAR1i/αPD-1, 4) control IgG. Tumor volumes and overall survival will be determined as described in the previous section (Aim 2-1). Tumors will be biopsied and blood collected at interval periods (at EOT, e.g. 7 days, at TTR, and at EOS) and analyzed for hallmark melanoma features as above. […]

[16] = tested on: HSG2; assay: Dose-dependent killing, HSG2; format: cell-based; conditions: mouse non-ALT cancer cells
Procedure: as §2

Sequence of GAPDH (P04406 whole entry, species assumed): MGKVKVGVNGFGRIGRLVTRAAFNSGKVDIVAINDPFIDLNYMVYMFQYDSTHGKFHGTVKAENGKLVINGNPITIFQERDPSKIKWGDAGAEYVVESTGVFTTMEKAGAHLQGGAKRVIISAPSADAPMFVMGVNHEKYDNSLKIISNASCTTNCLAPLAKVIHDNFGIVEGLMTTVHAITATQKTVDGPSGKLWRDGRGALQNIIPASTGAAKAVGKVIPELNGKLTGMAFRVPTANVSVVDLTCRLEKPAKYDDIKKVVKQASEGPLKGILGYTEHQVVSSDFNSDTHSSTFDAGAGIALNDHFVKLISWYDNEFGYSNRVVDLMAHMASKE
Sequence of ADAR1p110-E912A (P55265 296-1226 E912A): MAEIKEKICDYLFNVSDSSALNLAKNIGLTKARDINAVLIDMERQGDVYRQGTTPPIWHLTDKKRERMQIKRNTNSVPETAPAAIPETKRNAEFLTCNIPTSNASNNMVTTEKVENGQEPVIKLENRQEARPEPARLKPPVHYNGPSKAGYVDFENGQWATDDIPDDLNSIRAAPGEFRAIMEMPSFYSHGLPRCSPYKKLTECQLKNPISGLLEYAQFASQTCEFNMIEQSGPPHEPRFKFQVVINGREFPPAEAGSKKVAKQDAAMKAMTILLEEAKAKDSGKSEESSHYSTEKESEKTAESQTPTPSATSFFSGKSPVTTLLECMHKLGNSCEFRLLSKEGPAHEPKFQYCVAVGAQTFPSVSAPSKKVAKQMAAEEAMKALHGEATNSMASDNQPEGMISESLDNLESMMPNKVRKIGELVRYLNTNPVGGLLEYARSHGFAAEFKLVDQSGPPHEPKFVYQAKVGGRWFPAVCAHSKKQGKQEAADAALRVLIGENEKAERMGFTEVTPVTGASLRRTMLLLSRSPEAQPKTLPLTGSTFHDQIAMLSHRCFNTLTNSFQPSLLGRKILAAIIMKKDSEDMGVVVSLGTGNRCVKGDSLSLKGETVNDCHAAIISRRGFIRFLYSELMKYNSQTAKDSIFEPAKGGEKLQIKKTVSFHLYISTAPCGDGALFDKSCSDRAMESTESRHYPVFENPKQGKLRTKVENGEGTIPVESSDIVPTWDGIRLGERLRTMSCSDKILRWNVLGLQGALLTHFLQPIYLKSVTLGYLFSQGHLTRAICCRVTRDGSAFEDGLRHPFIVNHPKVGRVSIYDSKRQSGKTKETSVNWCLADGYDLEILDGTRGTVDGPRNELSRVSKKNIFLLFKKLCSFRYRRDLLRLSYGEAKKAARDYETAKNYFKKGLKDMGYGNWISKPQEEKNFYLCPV

Compound	Binding to GAPDH [1]	Binding to ADAR1p110-E912A mutant [2]	ISG expression / IFN signaling activation [3]	Well tolerated dose [4]	Well tolerated dose ([4]; 5 days)	Killing of YUMM1.7 cells [5]	Killing of U2OS cells [6]	Growth of mouse melanomas in vivo [7]	Suppression of human and mouse melanoma cell lines relative to other inhibitors [8]	Induction of necroptosis [9]	ISG expression / IFN signaling activation [10]	Induction of apoptosis [11]	Z-RNA formation [12]	Killing of mouse melanoma and ovarian cancer cells [13]	half-life [14] [h]	Killing of WM3000 cells [15]	Killing of HSG2 cells [16]
N#Cc1ccc(NC(=O)c2sc3ccccc3c2Cl)cc1 [ADAR1i-13, 3-chloro-N-(4-cyanophenyl)-1-benzothiophene-2-carboxamide]	did not bind	did not bind															
N#Cc1ccc(NC(=O)c2c(Cl)c3ccccc3n2CO)cc1 [ADAR1i-124]	did not bind	a binding kinetics different from that with ADAR1p110-WT	upregulated expression of interferon stimulated genes (ISGs) including MDA5, CXCL9, and CXCL10; also recorded: upregulated expression of known ISGs; also recorded: activated type I IFN signaling; also recorded: Activation of the IFN signaling	up to 50 mg/kg	up to 50 mg/kg	dose-dependently killed	unaffected	significantly suppressed growth of mouse melanomas	more efficiently than ADAR1i-13 and ADAR1i-120	induced necroptosis; also recorded: killed via necroptosis	Activation of the IFN signaling	induced apoptosis; also recorded: killed via apoptosis	induces formation of Z-RNAs	dose-dependently and efficiently killed	~12	killed one PDX melanoma cell line, WM3000, in a dose-dependent manner; also recorded: dose-dependently killed	dose-dependently killed
